Reference: ChEMBL document CHEMBL3603778, “Exploration on natural product anibamine side chain modification toward development of novel CCR5 antagonists and potential anti-prostate cancer agents” (Bioorg Med Chem Lett, 2015)

Assays:
[1] = target: C-C chemokine receptor type 5 (Homo sapiens, UniProt P51681); test: Antagonist activity at CCR5 (unknown origin) expressed in human MOLT4 cells assessed as inhibition of CCL5-induced calcium mobilization after 1 hr; type: functional, cell-based, MOLT-4
PC-3 = test: Antiproliferative activity against human PC3 cells after 72 hrs by WST1 assay; type: functional, cell-based; settings: PC-3, 72 h
[2] = Cytotoxicity against mouse NIH/3T3 cells after 72 hrs by WST1 assay; type: cell-based, NIH3T3; settings: read-out: TC50
[3] = Antiproliferative activity against human M12 cells after 72 hrs by WST1 assay; type: functional, cell-based; settings: M12, 72 h

Sequence of C-C chemokine receptor type 5 (P51681 whole entry): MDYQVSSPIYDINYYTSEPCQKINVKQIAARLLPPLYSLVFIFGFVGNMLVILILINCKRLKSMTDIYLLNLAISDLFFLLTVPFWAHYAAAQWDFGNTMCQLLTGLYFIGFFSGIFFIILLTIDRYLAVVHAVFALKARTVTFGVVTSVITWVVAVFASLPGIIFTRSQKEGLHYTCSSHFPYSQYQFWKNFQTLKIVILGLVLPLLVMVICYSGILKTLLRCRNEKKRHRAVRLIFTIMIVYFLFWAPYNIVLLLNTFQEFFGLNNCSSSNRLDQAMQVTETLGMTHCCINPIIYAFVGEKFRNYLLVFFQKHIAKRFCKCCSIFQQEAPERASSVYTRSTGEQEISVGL

SMILES | IC50 [1] [µM] | IC50 (PC-3) [µM] | CC50 at 72 h [2] [µM] | IC50 [3] [µM]
Cc1c(CNC(=O)c2ccc(C#N)cc2)c(C)[n+]2c(c1CNC(=O)c1ccc(C#N)cc1)CCC2 | 101 | – | – | –
Cc1c(CNC(=O)c2ccc(Cl)cc2)c(C)[n+]2c(c1CNC(=O)c1ccc(Cl)cc1)CCC2 | 46.2 | 179 | 263 | 135
Cc1c(CNC(=O)c2ccc(N)cc2)c(C)[n+]2c(c1CNC(=O)c1ccc(N)cc1)CCC2 | 174 | – | – | –
CCc1ccc(C(=O)NCc2c(C)c(CNC(=O)c3ccc(CC)cc3)c3[n+](c2C)CCC3)cc1 | 23.9 | 162 | – | 169
CSc1ccc(C(=O)NCc2c(C)c(CNC(=O)c3ccc(SC)cc3)c3[n+](c2C)CCC3)cc1 | – | 102 | – | 252
Cc1c(CNC(=O)c2ccc(F)cc2)c(C)[n+]2c(c1CNC(=O)c1ccc(F)cc1)CCC2 | 80.9 | – | – | –
Cc1c(CNC(=O)c2ccc([N+](=O)[O-])cc2)c(C)[n+]2c(c1CNC(=O)c1ccc([N+](=O)[O-])cc1)CCC2 | 67.7 | > 300 | – | 161
Cc1c(CNC(=O)c2ccc(C(C)(C)C)cc2)c(C)[n+]2c(c1CNC(=O)c1ccc(C(C)(C)C)cc1)CCC2 | 30.1 | 31 | 83.2 | 59.9
Cc1c(CNC(=O)c2ccc(C(F)(F)F)cc2)c(C)[n+]2c(c1CNC(=O)c1ccc(C(F)(F)F)cc1)CCC2 | 121 | – | – | –
COc1ccc(C(=O)NCc2c(C)c(CNC(=O)c3ccc(OC)cc3)c3[n+](c2C)CCC3)cc1 | 69 | 154 | – | 127
Cc1c(CNC(=O)c2ccc(C(C)C)cc2)c(C)[n+]2c(c1CNC(=O)c1ccc(C(C)C)cc1)CCC2 | 26.8 | 168 | 270 | 120
Cc1c(CNC(=O)c2ccc(Br)cc2)c(C)[n+]2c(c1CNC(=O)c1ccc(Br)cc1)CCC2 | 38.5 | 147 | 182 | 92

The remaining compounds from weak to strong by IC50 [1], led by results:

IC50 [1] [µM] | IC50 (PC-3) [µM] | SMILES | CC50 at 72 h [2] [µM] | IC50 [3] [µM]
18.7 | 244 | Cc1ccc(C(=O)NCc2c(C)c(CNC(=O)c3ccc(C)cc3)c3[n+](c2C)CCC3)cc1 | – | 185
17.3 | 47.1 | Cc1c(CNC(=O)c2ccc(-c3ccccc3)cc2)c(C)[n+]2c(c1CNC(=O)c1ccc(-c3ccccc3)cc1)CCC2 | 228 | 49.1
12.9 | 55.3 | Cc1c(CNC(=O)c2ccc(C3CCCCC3)cc2)c(C)[n+]2c(c1CNC(=O)c1ccc(C3CCCCC3)cc1)CCC2 | 43.4 | 20.9
12.7 | 101 | Cc1c(CNC(=O)c2ccc3ccccc3c2)c(C)[n+]2c(c1CNC(=O)c1ccc3ccccc3c1)CCC2 | – | 192
1.35 | 508 | Cc1c(CNC(=O)c2ccccc2)c(C)[n+]2c(c1CNC(=O)c1ccccc1)CCC2 | 212 | 285
